These results are taken from US5185257A, “Thermostable xanthine oxidase from Arthrobacter luteus” (Toyo Boseki Kabushiki Kaisha, priority 1990, dated 1993).

For test [1], the system named is Arthrobacter luteus ATCC 21606 thermostable xanthine oxidase (enzyme of the invention). The test can be described thus: km value of the thermostable xanthine oxidase of the invention. Format: biochemical. Here is the method:
50 mM tris-hydrochloric acid buffer (2.9 ml) and 0.1 ml of a 10 mM aqueous solution of xanthine are mixed, and this mixture is pre-heated at 37° C. After 0.01 ml of enzyme solution is added and gently mixed, the increase of absorbance at 293 nm per minute is determined using a spectrophotometer thermostated at 37° C. with distilled water as the control. The xanthine oxidase activity is expressed on the assumption that the amount of enzyme which produces 1 μmol of uric acid per minute under the conditions described above is taken as 1 unit (U).
After 0.01 ml of enzyme solution is added and gently mixed, the increase of absorbance at 550 nm per minute is determined using a spectrophotometer thermostated at 37° C. with distilled water as the control. The xanthine oxidase activity is expressed on the assumption that the amount of enzyme which produces 1 μmol of quinone imine pigment per minute under the conditions described above is taken as 1 unit (U).

For test [2], the system named is xanthine oxidase derived from Enterobacter cloacae. Nature of the test: km value of the comparative xanthine oxidase from Enterobacter cloacae. Format: biochemical. The following applies: Table 1, Comparative Example.
Description: Determinations were made for conventional xanthine oxidase derived from milk and xanthine oxidase derived from Enterobacter cloacae.

Structures are written as SMILES. Like-named read-outs stand apart in the source and are kept apart here.

Regarding `O=c1[nH]cnc2nc[nH]c12` [hypoxanthine], the Km in test [1] (read-out: km value for hypoxanthine, pH 7.5) was ~52 µM; in test [1] (read-out: km value hypoxanthine, Table 1, enzyme of Example 1), 52 µM; in test [2] (read-out: km value hypoxanthine) it was 83 µM.
As to `O=c1[nH]c(=O)c2[nH]cnc2[nH]1` [xanthine], the Michaelis-Menten constant (Km) in test [1] (Table 1, enzyme of Example 1, read-out: km value xanthine) was 54 µM; in test [1] (pH 7.5, read-out: km value for xanthine) it was ~54 µM; in test [2] (read-out: km value xanthine) it was 73 µM.

By Km is commonly meant the substrate concentration at which the rate is half of its maximum.
